# From patent publication US8835428B2, “Diacylglycerol acyltransferase inhibitors” (Piramal Enterprises Limited, priority 2008, dated 2014)
# Target: T1, hDGAT1 (Homo sapiens, UniProt O75907)
# T1 construct: host or cells: Sf9 insect cells (baculovirus); microsomal preparation
# T1 sequence (O75907 1-488): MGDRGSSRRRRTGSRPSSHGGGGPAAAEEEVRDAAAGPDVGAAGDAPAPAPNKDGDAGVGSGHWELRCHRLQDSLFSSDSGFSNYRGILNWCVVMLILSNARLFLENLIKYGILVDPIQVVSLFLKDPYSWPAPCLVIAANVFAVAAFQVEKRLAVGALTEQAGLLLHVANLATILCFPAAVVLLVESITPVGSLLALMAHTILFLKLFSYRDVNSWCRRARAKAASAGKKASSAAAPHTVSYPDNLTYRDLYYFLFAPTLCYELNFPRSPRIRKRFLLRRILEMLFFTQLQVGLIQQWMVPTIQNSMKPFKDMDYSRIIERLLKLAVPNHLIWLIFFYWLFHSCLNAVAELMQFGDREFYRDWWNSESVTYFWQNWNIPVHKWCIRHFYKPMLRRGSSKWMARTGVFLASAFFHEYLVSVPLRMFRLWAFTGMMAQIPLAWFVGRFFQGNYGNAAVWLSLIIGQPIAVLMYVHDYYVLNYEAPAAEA
# Assay: In-vitro DGAT1 assay (hDGAT1 microsomes from Sf9 cells, 14C oleoyl CoA, triglyceride formation)
# Format: biochemical
# Details: At 10 μM
# Procedure: In-vitro Protocol for DGAT1 Assay
# Sf9 Culture and Treatment
# Sf9 cells were grown in T25 flasks containing Graces's Insect media with 10% FBS with antibiotic (100 units/mL penicillin, 100 μg/mL streptomycin sulphate, 0.25 μg/mL Amptotericin B as Fungizone) grown in a 27° C. incubator:
# hDGAT1ORF expression clone (RZPDo839C09146 in pDEST vector) was obtained from RZPD, Germany. hDGAT1 bacmid DNA was obtained by transformation of the hDGAT expression clone into DH10Bac E. coli competent cells. Approximately 1 μg of hDGAT1 bacmid DNA was infected into Sf9 cells with Cellfectin (Invitrogen) reagent. Following infection, Sf9 cells were incubated at 27° C. for 30 minutes. Five hours after infection, the media was replaced with growth media containing antibiotic (100 units/mL penicillin, 100 μg/mL streptomycin sulphate, 0.25 μg/mL Amptotericin B as Fungizone) and incubated at 27° C. for 72 hours. The supernatant containing the virus was centrifuged at 1500×g for 5 minutes, passed through 0.22 μm filter, and subsequently stored at 4° C. The virus was further amplified three more times by re-infection of Sf9 cells and the viral titer was determined by plaque assay.
# Preparation of DGAT1 Microsomes from Sf9 Cells
# Sf9 cells were seeded in spinner flasks on day 0 at a cell density of 1×10^6 and infected on day 1 with hDGAT1 baculovirus at a multiplicity of infection (MOI) of 5 and a cell density of 2×10^6. On day 3 (or 66-72 hours), cells were harvested and centrifuged at 2500×g for 10 minutes. Pellet was resuspended in lysis buffer (100 mM sucrose, 50 mM KCl, 40 mM KH2PO4, 30 mM EDTA, pH 7.2) and passed through 21-gauge needle approximately 10 times. The mixture was centrifuged at 12,000 rpm in a Sigma 12158-H rotor at 4° C. for 30 minutes. The supernatant was subjected to centrifugation at 35,000 rpm in a Beckman Ti-45 rotor at 4° C. for 1 hour. The resultant pellet containing the microsomes were resuspended overnight in 1 mL of lysis buffer and total protein concentration was estimated using Bradford Reagent. Microsomes were aliquoted and stored at −20° C.
# Measurement of DGAT1 Activity
# Frozen aliquots of hDGAT1 containing microsomes were thawed (5-10 mg/mL total protein) on ice and diluted to a working stock of 1 mg/mL with DGAT Assay Buffer (DAB). The DGAT reaction assay was performed by following the procedure described in U.S. Pat. No. 6,607,893 with some modifications that are described below.
# Preparation of DGAT1 substrate mixture: 1 mL stock solution of DGAT1 substrate mixture contains (i) 5.6 μL of ^14C oleoyl CoA (16.8 nCi) and 35 μL 1,2-dioleoyl-sn-glycerol (409.5 μM) or (ii) 5.6 μL of ^14C oleoyl CoA (16.8 nCi) and 105 μL 1,2-dioleoyl-sn-glycerol (1228.5 μM) or (iii) 5.6 μL of ^14C oleoyl CoA (16.8 nCi) and 140 μL 1,2-dioleoyl-sn-glycerol (1638 μM).
# 1,2-sn-dioleoylglycerol substrate concentration in the 1 mL stock solution of DGAT1 substrate mixture was varied depending on the microsome concentration used in the assay reaction. 1,2-dioleoyl-sn-glycerol stock (19.5 mM) was prepared by dissolving 25 mg of 1,2-dioleoyl-sn-glycerol (Sigma, US) in 2060 μL of acetone. The assay was performed in duplicates in a reaction volume of 100 μL. The reaction volume consisted of: • (i) 27.5 μL of DGAT assay buffer (0.25M Sucrose, 1 mM EDTA (pH 8.0), 150 mM Tris-HCl, pH 7.4, 1.25 mg/mL, fatty acid free BSA), • (ii) 10 μL of compound, of present invention or standard (dissolved in DMSO and diluted to 10× with DAB and screened at 10 μM, 5 μM and 1 μM), • (iii) 60 μL DGAT1 substrate mixture taken from a 1 mL stock (16.8 nCi of ^14C oleoyl CoA and 409.5 μM or 1228.5 μM or 1638 μM of 1,2-dioleyl-sn-glycerol), • (iv) 2.5-10 μL of 1 mg/mL of microsomes (the amount of assay buffer was varied depending upon the concentration of microsome to make up the volume to 100 μL). Procedure:
# The reaction was started by the addition of 2.5-10 μL of 1 mg/mL of microsomes (iv) to a mixture of (i), (ii) and (iii), vortexed and incubated at 37° C. for 10 minutes. […]
row,Compound,inhibition at 10 µM [%]
1,"COC[C@H](NC(=NO)c1cc(-c2cccc(Nc3nc4ccc(F)cc4s3)c2)no1)C(=O)O [Example 33, (S)-2-({3-[3-(6-Fluoro-benzothiazol-2-ylamino)-phenyl]-N-hydroxy-isoxazole-5-carboximidoyl}-amino)-3-methoxy-propionic acid]",0 to 50
2,"COC(=O)[C@@H]1CCCN1C(=O)c1cc(-c2cccc(Nc3nc4ccc(F)cc4s3)c2)no1 [Example 34, (S)-1-{3-[3-(6-Fluoro-benzothiazol-2-ylamino)-phenyl]-isoxazole-5-carbonyl}-pyrrolidine-2-carboxylic acid methyl ester]",0 to 50
3,"O=C(O)[C@@H]1CCCN1C(=O)c1cc(-c2cccc(Nc3nc4ccc(F)cc4s3)c2)no1 [Example 35, (S)-1-{3-[3-(6-Fluoro-benzothiazol-2-ylamino)-phenyl]-isoxazole-5-carbonyl}-pyrrolidine-2-carboxylic acid]",0 to 50
4,"COC(=O)[C@@H]1CCCN1C(=S)c1cc(-c2cccc(Nc3nc4ccc(F)cc4s3)c2)no1 [Example 36, (S)-1-{3-[3-(6-Fluoro-benzothiazol-2-ylamino)-phenyl]-isoxazole-5-carbothioyl}-pyrrolidine-2-carboxylic acid methyl ester]",50 to 75
5,"O=C(O)[C@@H]1CCCN1C(=S)c1cc(-c2cccc(Nc3nc4ccc(F)cc4s3)c2)no1 [Example 37, (S)-1-{3-[3-(6-Fluoro-benzothiazol-2-ylamino)-phenyl]-isoxazole-5-carbothioyl}-pyrrolidine-2-carboxylic acid]",0 to 50
6,"COC(=O)[C@H](NC(=NO)c1cc(-c2ccc(Nc3nc4ccc(F)cc4s3)cc2)no1)C(C)C [Example 40, (R)-2-({3-[4-(6-Fluoro-benzothiazol-2-ylamino)-phenyl]-N-hydroxy-isoxazole-5-carboximidoyl}-amino)-3-methyl-butyric acid methyl ester]",0 to 50
7,"CC(C)[C@@H](NC(=NO)c1cc(-c2ccc(Nc3nc4ccc(F)cc4s3)cc2)no1)C(=O)O [Example 41, (R)-2-({3-[4-(6-Fluoro-benzothiazol-2-ylamino)-phenyl]-N-hydroxy-isoxazole-5-carboximidoyl}-amino)-3-methyl-butyric acid]",0 to 50
8,"CC(C)[C@@H](NC(=S)c1cc(-c2ccc(Nc3nc4ccc(F)cc4s3)cc2)no1)C(=O)O [Example 43, (R)-2-({3-[4-(6-Fluoro-benzothiazol-2-ylamino)-phenyl]-isoxazole-5-carbothioyl}-amino)-3-methyl-butyric acid]",50 to 75
9,"CC(C)[C@H](NC(=S)c1cc(-c2ccc(Nc3nc4ccc(F)cc4s3)cc2)no1)C(=O)O [Example 45, (S)-2-({3-[4-(6-Fluoro-benzothiazol-2-ylamino)-phenyl]-isoxazole-5-carbothioyl}-amino)-3-methyl-butyric acid]",50 to 75

# The next lines start with the values.
row,inhibition at 10 µM [%],Compound
1,50 to 75,"COC(=O)[C@H](NC(=O)c1cc(-c2ccc(Nc3nc4ccc(F)cc4s3)cc2)no1)C(C)C [Example 38, (R)-2-({3-[4-(6-Fluoro-benzothiazol-2-ylamino)-phenyl]-isoxazole-5-carbonyl}-amino)-3-methyl-butyric acid methyl ester]"
2,0 to 50,"COC(=O)[C@H](NC(=S)c1cc(-c2ccc(Nc3nc4ccc(F)cc4s3)cc2)no1)C(C)C [Example 39, (R)-2-({3-[4-(6-Fluoro-benzothiazol-2-ylamino)-phenyl]-isoxazole-5-carbothioyl}-amino)-3-methyl-butyric acid methyl ester]"
3,50 to 75,"CC(C)[C@@H](NC(=O)c1cc(-c2ccc(Nc3nc4ccc(F)cc4s3)cc2)no1)C(=O)O [Example 42, (R)-2-({3-[4-(6-Fluoro-benzothiazol-2-ylamino)-phenyl]-isoxazole-5-carbonyl}-amino)-3-methyl-butyric acid]"
4,75 to 100,"CC(C)[C@H](NC(=O)c1cc(-c2ccc(Nc3nc4ccc(F)cc4s3)cc2)no1)C(=O)O [Example 44, (S)-2-({3-[4-(6-Fluoro-benzothiazol-2-ylamino)-phenyl]-isoxazole-5-carbonyl}-amino)-3-methyl-butyric acid]"
5,0 to 50,"COC(=O)[C@H](CC(C)C)NC(=O)c1cc(-c2ccc(Nc3nc4ccc(F)cc4s3)cc2)no1 [Example 46, (S)-2-({3-[4-(6-Fluoro-benzothiazol-2-ylamino)-phenyl]-isoxazole-5-carbonyl}-amino)-4-methyl-pentanoic acid methyl ester]"
6,75 to 100,"CC(C)C[C@H](NC(=O)c1cc(-c2ccc(Nc3nc4ccc(F)cc4s3)cc2)no1)C(=O)O [Example 47, (S)-2-({3-[4-(6-fluoro-benzothiazol-2-ylamino)-phenyl]-isoxazole-5-carbonyl}-amino)-4-methyl-pentanoic acid]"
7,0 to 50,"COC(=O)[C@H](CC(C)C)NC(=S)c1cc(-c2ccc(Nc3nc4ccc(F)cc4s3)cc2)no1 [Example 48, (S)-2-({3-[4-(6-Fluoro-benzothiazol-2-ylamino)-phenyl]-isoxazole-5-carbothioyl}-amino)-4-methyl-pentanoic acid methyl ester]"
8,50 to 75,"CC(C)C[C@H](NC(=S)c1cc(-c2ccc(Nc3nc4ccc(F)cc4s3)cc2)no1)C(=O)O [Example 49, (S)-2-({3-[4-(6-Fluoro-benzothiazol-2-ylamino)-phenyl]-isoxazole-5-carbothioyl}-amino)-4-methyl-pentanoic acid]"
9,0 to 50,"COC(=O)[C@H](CC(C)C)NC(=NO)c1cc(-c2ccc(Nc3nc4ccc(F)cc4s3)cc2)no1 [Example 50, (S)-2-({3-[4-(6-Fluoro-benzothiazol-2-ylamino)-phenyl]-N-hydroxy-isoxazole-5-carboximidoyl}-amino)-4-methyl-pentanoic acid methyl ester]"
10,0 to 50,"CC(C)C[C@H](NC(=NO)c1cc(-c2ccc(Nc3nc4ccc(F)cc4s3)cc2)no1)C(=O)O [Example 51, (S)-2-({3-[4-(6-Fluoro-benzothiazol-2-ylamino)-phenyl]-N-hydroxy-isoxazole-5-carboximidoyl}-amino)-4-methyl-pentanoic acid]"
